Values of other authors in patent EP3933036B1, “PROCESS FOR 7-BETA-HYDROXYLATION OF BILE ACID DERIVATIVES” (MICROMUN Institut für Mikrobiologische Forschung GmbH, priority 2020, dated 2022).

Conditions: at 298 K

| SMILES | octanol/water partition coefficient (KOW) |
| --- | --- |
| C[S+](C)[O-] [DMSO] | 2 |
| CC#N [acetonitrile] | 2 |
| CCOC(C)=O [ethyl acetate] | 11 |
